Test results reported in publication PMC5640644, “HDX reveals the conformational dynamics of DNA sequence specific VDR co-activator interactions” (Nature Communications, 2017).
Like-named read-outs stand apart in the source and are kept apart here.

Assays:
[1] = system: BGLAP; assay: BGLAP gene activation assay (BGLAP mRNA, QuantiGene 2.0) in MG-63 cells; type: cell-based, human; details: MG-63 cells; for EC50: 24 h, average of replicate runs, read-out: EC50, BGLAP activation; for Max. Stim., BGLAP activation: fold change over DMSO normalized to 1,25D3 = 100%
Method: Human osteosarcoma cells MG-63, (CRL-1427, American Type Culture Collection (ATCC), Manassas, VA), were maintained in EMEM (ATCC 30–2003) + 10% FBS in 5% CO2. For bone gamma-carboxyglutamate protein (BGLAP) expression analysis MG-63 cells, suspended in EMEM (ATCC 30–2003) + 5% charcoal dextran treated FBS, were seeded onto 96-well tissue culture treated plates at 25,000 cells per well. After an overnight incubation the medium was removed and serial dilutions of VDRMs in concentrations ranging from 10 μM to 2 nM in EMEM (ATCC 30–2003) + 5% charcoal dextran treated FBS were added. Following a 24 h incubation the medium was removed and the plates were sealed and stored at −80 °C for later processing. QuantiGene 2.0 Assay Kit (Affymetrix QS0009) was used to quantitate BGLAP and the Housekeeping gene […] mRNA levels. Following the kit instructions, lysis buffer was added to the frozen cells and incubated briefly at 55 °C. A volume of 20 μl of BGLAP probeset (Affymetrix SA-10875-01) or 18 S (Affymetrix SA-10026) in blocking buffer was added to the provided capture plates before adding 80 μl of the cell lysate. The plates were sealed and incubated at 55 °C overnight. Following an overnight incubation the capture plates were washed and the probes amplified following kit instructions. The resulting luminescence signal was detected on an Envision (Perkin Elmer). BGLAP signal was normalized using the 18S signal and the resulting data was fit to a 4-parameter logistics to determine EC50.

[2] = system: TRPV6; assay: TRPV6 gene activation assay (TRPV6 mRNA, QuantiGene 2.0) in differentiated C2BBe1 cells; type: cell-based, human; details: for Max. Stim., TRPV6 activation: C2BBe1 cells, fold change over DMSO normalized to 1,25D3 = 100%; for EC50: C2BBe1 cells differentiated 6 days, 24 h
Method: C2BBe1 (a clone of CaCO2) cells (CRL-2101, American Type Culture Collection, Manassas, VA) were maintained in DMEM (ATCC 30-2002) supplemented with 10% FBS and insulin-transferrin-selenium-G supplement (Invitrogen, Carlsbad, CA). For TRPV6 expression analysis, cells were plated in 96-well tissue culture treated plates (40,000 per well) in differentiation medium (DMEM containing 5% charcoal-stripped FBS and insulin-transferrin-sodium selenite supplement (ITS)). Cells were allowed to differentiate for 6 days with medium replacement every other day before compound treatment. The medium was removed, and serial dilutions of 1,25D3 or VDRMs in concentrations ranging from 10 μM to 2 nM in differentiation medium were added. After 24 h, the medium was removed, and cell plates were sealed and frozen at −80 °C until assayed. QuantiGene 2.0 Assay Kit (Affymetrix QS0009) was used to quantitate TRPV6 and housekeeping gene GUSB mRNA levels. Following the kit instructions, lysis buffer was added to the frozen cells and incubated briefly at 55 °C […]. Following an overnight incubation the capture plates were washed and the probes amplified following kit instructions. The resulting luminescence signal was detected on an Envision plate reader (Perkin Elmer). TRPV6 signal was normalized using the GUSB signal and the resulting data was fit to a 4-parameter logistic to determine EC50 values.

[3] = Homo sapiens, average of replicate runs

Compound	EC50 ([1]; Homo sapiens) [µM]	Max. Stim., BGLAP activation [1] [%]	Max. Stim., TRPV6 activation [2] [%]	EC50 [2, 3] [µM]	EC50 [1] [µM]	EC50 ([2]; top concentration 10 μM) [µM]
CCc1cc(C(CC)(CC)c2ccc(OCC(O)C(C)(C)C)c(C)c2)sc1C(=O)N[C@@H](C)C(=O)O (single isomer, unassigned) [Cmpd2, L-2-[(5-{1-Ethyl-1-[4-(2-hydroxy-3,3-dimethyl-butoxy)-3-methyl-phenyl]-propyl}-3-ethyl-thiophene-2-carbonyl)-amino]-propionic acid]	0.0349	73	98.2	0.395	–	–
CCC(CC)(c1ccc(OCC(O)C(C)(C)C)c(C)c1)c1ccc(C(=O)N(C)CC(=O)O)c(C)c1 (stereo not drawn) [Cmpd1, [(4-{1-ethyl-1-[4-(2-hydroxy-3,3-dimethyl-butoxy)-3-methyl-phenyl]-propyl}-2-methyl-benzoyl)-methyl-amino]-acetic acid]	0.00144	94.2	80.3	0.063	–	–
CCC(CC)(c1ccc(OCC(O)C(C)(C)C)c(C)c1)c1cc(C)c(C(=O)Nc2nnn[nH]2)s1 (stereo not drawn) [Cmpd3, 3'-[4-(2-hydroxy-3,3-dimethylbutoxy)-3-methylphenyl]-3'-[5-(tetrazol-5-yl-aminocarbonyl)-4-methylthiophen-2-yl]pentane]	–	75.9	17.4	–	0.698	> 10
